According to patent US7608750B2, “Nonhuman model animal unresponsive to immunopotentiating synthetic compound” (Japan Science and Technology Agency, priority 2001, dated 2009):

Legend:
BALB/c mice (wild-type) = test: Serum cytokines after oral administration of imidazoquinolines; assay type: in vivo, mouse; conditions: after two hours, N=3
Description: Before examining the reactivity of TLR7 knockout mice to imiquimod and R-848 which are imidazoquinoline group compound, firstly imiquimod or R-848 were administered to BALB/c mice (wild-type) orally at the predetermined concentration, respectively, the concentration of IFN-α, TNF-α and IL-12 in serum were measured after two hours. […] The data is shown as a mean value+/−S.D. (N=3). Similarly, the ability of these compounds to activate immune cells via TLR was examined using imiquimod or R-848 respectively. The peritoneal macrophages (5×10^4 cells) from wild-type mice and MyD88 knockout mice prepared in example 2, were stimulated by imiquimod or R-848, in the presence or absence of 30 U/ml of IFN-γ, and the concentration of TNF-α and IL-12 produced by peritoneal macrophages were measured by ELISA. […] The data is shown as a mean value+/−S.D. (N=3).

TLR7 = molecular target: T1, TLR7 (Homo sapiens, UniProt Q9NYK1); test: NF-κB reporter gene (luciferase) in HEK293 cells transfected with TLR7 expression plasmids; assay type: cell-based; conditions: HEK293 cells transiently cotransfected with human TLR7 expression plasmids, before and after R-848 stimulation
T1 construct: expressed in transfected cells; host or cells: HEK293
T1 sequence (Q9NYK1 27-1049): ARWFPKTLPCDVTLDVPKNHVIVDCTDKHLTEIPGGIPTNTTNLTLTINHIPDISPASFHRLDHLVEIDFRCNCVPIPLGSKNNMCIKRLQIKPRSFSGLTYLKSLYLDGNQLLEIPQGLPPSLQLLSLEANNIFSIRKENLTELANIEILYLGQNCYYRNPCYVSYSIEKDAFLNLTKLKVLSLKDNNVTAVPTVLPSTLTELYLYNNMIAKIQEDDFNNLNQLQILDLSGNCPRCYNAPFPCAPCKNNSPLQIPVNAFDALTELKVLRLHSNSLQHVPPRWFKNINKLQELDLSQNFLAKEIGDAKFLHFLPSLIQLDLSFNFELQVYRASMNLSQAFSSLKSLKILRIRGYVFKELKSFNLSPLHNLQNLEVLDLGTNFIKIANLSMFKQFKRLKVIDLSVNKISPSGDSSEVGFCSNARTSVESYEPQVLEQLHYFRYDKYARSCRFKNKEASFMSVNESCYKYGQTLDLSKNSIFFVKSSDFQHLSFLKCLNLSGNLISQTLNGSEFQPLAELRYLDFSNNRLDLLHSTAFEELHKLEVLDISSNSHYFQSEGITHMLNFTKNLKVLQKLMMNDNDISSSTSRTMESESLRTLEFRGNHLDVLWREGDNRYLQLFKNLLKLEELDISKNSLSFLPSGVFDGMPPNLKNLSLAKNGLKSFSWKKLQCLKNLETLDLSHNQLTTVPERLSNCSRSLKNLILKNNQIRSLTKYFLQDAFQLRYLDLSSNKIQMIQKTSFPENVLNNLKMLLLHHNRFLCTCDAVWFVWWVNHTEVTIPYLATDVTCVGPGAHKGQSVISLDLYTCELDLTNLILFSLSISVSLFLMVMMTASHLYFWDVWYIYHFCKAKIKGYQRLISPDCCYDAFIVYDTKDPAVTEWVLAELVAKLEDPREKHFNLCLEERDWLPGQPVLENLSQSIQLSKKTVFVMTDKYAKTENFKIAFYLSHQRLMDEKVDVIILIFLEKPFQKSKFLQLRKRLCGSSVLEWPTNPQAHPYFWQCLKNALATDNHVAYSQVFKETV
Description: The functional role of TLR7 in transactivation of NF-κB reporter gene induced by R-848 was examined. HEK293 cells were transiently cotransfected with TLR7 expression plasmids derived from human, and luciferase activity was measured before and after R-848 stimulation. The peritoneal macrophages derived from TLR7 knockout mice (TLR7KO) and wild-type mice stimulated with thioglycollic acid were stimulated with 100 nm of R-848 or 1.0 μM of phosphothioate modified CpGDNA 1668 (CpG), all cell lysate were prepared, immunoprecipated with anti-JNK antibody, and JNK activity was examined by In Vitro Kinase Assay using GST-c-Jun fusion protein as a substrate. The same lysate was blotted with anti-JNK antibody. Moreover, the lysate was immunoprecipated with anti-IRAK, and kinase activity of IRAK was examined by In Vitro Kinase Assay. The same lysate was blotted with anti-IRAK antibody. […] It is important to activate TLR7-MyD88-dependent signal pathway for the effect of imidazoquinoline in vivo.

MyD88 knockout mice = test: Serum cytokines after intraperitoneal R-848, MyD88 knockout mice; assay type: in vivo, mouse; conditions: 50 nmol intraperitoneally, ELISA
Description: It was examined in vivo whether TLR7 was involved in a response to R-848. The wild-type mice, MyD88 knockout mice or TLR7 knockout mice were injected intraperitoneally with 50 nmol of R-848, the sera were harvested after a predetermined period of time, and the concentration of IFN-α, TNF-α and IL12p40 in sera was determined by ELISA. […] On the contrary, the increment of these cytokines was not observed in TLR7 knockout mice.

[1] = test system: splenic cells derived from wild-type mice; test: Splenic cell proliferation ([3H] thymidine incorporation), wild-type; assay type: cell-based, mouse; conditions: 5×10^4 cells, cultured 48 h
Description: As activated phenotypes were proliferated and expressed by stimulating B-lymphocytes with imidazoquinoline group compounds, the proliferation of splenic cells was examined (Cell. Immunol. 203, 55-62, 2000; J. Immunol. 165, 5552-5557, 2000). Splenic cells (5×10^4 cells) derived from TLR7 knockout mice (TLR7KO) and wild-type mice were stimulated with R-848 and CpGDNA at a predetermined concentration, cultured for 48 h (cultured by adding [^3H] thymidine for last eight hours), and measured the level of thymidine incorporation using a β scintillation counter. A mean value+/−S.D., obtained from representative experiment among triplicate experiments is shown.

CCOCc1nc2c(N)nc3ccccc3c2n1CC(C)(C)O [R-848, resiquimod]
concentration of IFN-α in serum (BALB/c mice (wild-type)): increased depending on applied dose
concentration of IL-12 in serum (BALB/c mice (wild-type)): increased depending on applied dose
concentration of TNF-α in serum (BALB/c mice (wild-type)): increased depending on applied dose
NF-κB-dependent promoter (luciferase activity) (TLR7): promoted
concentration of IFN-α in sera (MyD88 knockout mice): did not show any reactivity
concentration of IL12p40 in sera (MyD88 knockout mice): did not show any reactivity
concentration of TNF-α in sera (MyD88 knockout mice): did not show any reactivity
proliferation of splenic cells ([3H] thymidine incorporation) [1]: showed proliferation depending on concentration
